Test results reported in US12703693B2, “Crystalline forms of N-{3-[(1S)-1-{[6-(3,4-dimethoxyphenyl)pyrazin-2-yl]amino}ethyl]phenyl}-5-methylpyridine-3-carboxamide and related products and methods” (GB002, INC., priority 2021, dated 2026).
In brackets after ≈: the same amount, converted by molar mass.

Legend:
[1] = Solvent solubility of amorphous Compound 1 (solvent aliquot addition); type: physicochemical; conditions: thermodynamic from solid
Experimental: Test solvent/solvent system (50 μL) was added to the vial and the mixture assessed for dissolution. If no dissolution was apparent, the mixture was heated to ca. 40° C. and reassessed; if dissolution was still incomplete, the cycle was repeated and an additional 50 μL of solvent added. After 300 μL of solvent had been added, 100 μL aliquots were added. This procedure was continued until complete dissolution was observed or until 1 mL of solvent had been added.

[2] = Fragility and relaxation time (Tg vs heating rate by DSC); type: physicochemical; conditions: 25° C.; calculated from fragility parameters (γ=0.9, τ0=10^−14 s)
Experimental: Fragility and relaxation time parameters were determined by measuring Tg as a function of heating rate. Four heating rates were used: 1, 5, 10 and 20° C./min. DSC measurements were made by: • (1) heating at 10° C./min to 100° C.; • (2) isothermal hold for 5 min; • (3) cooling at 10° C./min to −20° C.; • (4) isothermal hold for 5 min; and • (5) heating at 10° C./min to 130° C.
The slope was used to calculate the activation enthalpy (ΔH*), from which the fragility parameters m, D and T0 were calculated, according to the following equations:
Using the fragility parameters, the initial structural relaxation time was calculated according to the following formula, (using γ=0.9 and τ0=10^−14 s) and determined to be 3 months at 25° C.

COc1ccc(-c2cncc(N[C@@H](C)c3cccc(NC(=O)c4cncc(C)c4)c3)n2)cc1OC [Amorphous Compound 1, N-{3-[(1S)-1-{[6-(3,4-dimethoxyphenyl)pyrazin-2-yl]amino}ethyl]phenyl}-5-methylpyridine-3-carboxamide]
solubility ([1]; 2-propanol, organic solvent or mixture): ≥ 200 mg/mL
solubility ([1]; EtOAc/tBME (75:25% v/v), organic solvent or mixture): ≥ 200 mg/mL
solubility ([1]; acetone, organic solvent or mixture): ≥ 200 mg/mL
solubility ([1]; acetonitrile, organic solvent or mixture): ≥ 200 mg/mL
solubility ([1]; chloroform, organic solvent or mixture): ≥ 200 mg/mL
solubility ([1]; ethanol, organic solvent or mixture): ≥ 200 mg/mL
solubility ([1]; ethanol/water (95:5% v/v), organic solvent or mixture): ≥ 200 mg/mL
solubility ([1]; ethyl acetate, organic solvent or mixture): ≥ 200 mg/mL
solubility ([1]; heptane, organic solvent or mixture): < 10 mg/mL
solubility ([1]; methanol, organic solvent or mixture): ≥ 200 mg/mL
solubility ([1]; methyl ethyl ketone, organic solvent or mixture): ≥ 200 mg/mL
solubility ([1]; organic solvent or mixture, EtOAc/tBME (25:75% v/v), sample heated to 40° C.): ~12.5 mg/mL (≈ 26.6 mM)
solubility ([1]; organic solvent or mixture, EtOAc/tBME (50:50% v/v), sample heated to 40° C.): ~100 mg/mL (≈ 213 mM)
solubility ([1]; tert-butyl methyl ether, organic solvent or mixture): < 10 mg/mL
solubility ([1]; tetrahydrofuran, organic solvent or mixture): ≥ 200 mg/mL
solubility ([1]; toluene, organic solvent or mixture): < 10 mg/mL
solubility ([1]; water): < 10 mg/mL
initial structural relaxation time [2]: 3 months
